Structures are written as SMILES. pIC50: −log10 of the molar value. Activity calls are given as the source filed them.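 Rule for the calls: active = mean IC50 below 20 µM in each of the two panels, so potent in both; inactive = the rest.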 A value given as a limit tells only on which side of the number the result lay.

Among the data in PubChem BioAssay AID651650 (Sanford-Burnham Center for Chemical Genomics, 2012) are IC50 values, retold here.

This experiment deals with Neuropilin-1 (Homo sapiens) (UniProt O14786). Kind of experiment: NRP-1 b1b2 CendR peptide binding inhibitors, dose response, biochemical, FP and AlphaScreen panel (AID 651650). Particulars: NRP-1 b1b2 / RPARPAR peptide binding, FP or AlphaScreen. (Bead proximity is the source of the signal in Alpha formats.)
Chain of Neuropilin-1 (Homo sapiens) (O14786 whole entry, looked up): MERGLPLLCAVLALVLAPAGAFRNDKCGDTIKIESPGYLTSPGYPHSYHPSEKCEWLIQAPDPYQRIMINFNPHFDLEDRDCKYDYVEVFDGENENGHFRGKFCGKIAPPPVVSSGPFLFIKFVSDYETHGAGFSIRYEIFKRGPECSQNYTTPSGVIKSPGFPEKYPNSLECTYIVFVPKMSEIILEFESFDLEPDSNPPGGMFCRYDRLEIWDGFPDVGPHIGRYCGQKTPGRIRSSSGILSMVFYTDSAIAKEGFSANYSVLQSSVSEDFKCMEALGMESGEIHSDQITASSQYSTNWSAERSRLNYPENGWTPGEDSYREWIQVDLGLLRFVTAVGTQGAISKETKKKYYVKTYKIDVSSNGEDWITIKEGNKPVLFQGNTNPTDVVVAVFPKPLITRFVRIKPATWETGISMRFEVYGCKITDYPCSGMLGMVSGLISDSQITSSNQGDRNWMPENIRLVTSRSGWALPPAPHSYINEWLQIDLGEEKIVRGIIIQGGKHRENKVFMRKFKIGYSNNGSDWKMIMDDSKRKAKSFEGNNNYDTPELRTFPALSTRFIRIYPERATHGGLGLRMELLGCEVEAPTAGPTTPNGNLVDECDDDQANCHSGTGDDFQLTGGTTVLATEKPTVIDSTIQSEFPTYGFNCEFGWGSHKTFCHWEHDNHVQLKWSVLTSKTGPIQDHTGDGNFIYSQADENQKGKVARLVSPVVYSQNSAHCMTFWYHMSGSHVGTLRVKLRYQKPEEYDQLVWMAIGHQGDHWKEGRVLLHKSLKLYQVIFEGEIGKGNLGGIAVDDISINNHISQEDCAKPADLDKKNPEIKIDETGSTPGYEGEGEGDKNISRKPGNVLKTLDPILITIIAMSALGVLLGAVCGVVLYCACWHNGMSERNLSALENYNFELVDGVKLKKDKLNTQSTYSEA
The mark [1] stands for this setting: AlphaScreen, run 1, individual panel run IC50.
The mark [2] stands for this setting: FP, run 1, individual panel run IC50.
[3] abbreviates: FP, run 2, individual panel run IC50.

A word on the pIC50: it is the negative decadic logarithm of the IC50, by convention in mol/L. One may read the IC50 as the concentration that inhibits the measured activity by half. For `O=C(NNC(=O)c1ccccc1Cl)c1cccnc1`, the pIC50 is 4.72 (AlphaScreen, mean of runs); 4.72 under setting [1]; below 4.02 under setting [2]; below 4.02 under setting [3]. The IC50 (FP, mean of runs) was > 95 µM (inactive).

Take `COc1ccc(/C=N/NC(=O)c2ccccc2Cl)cc1CSc1nc2ccccc2s1`: the IC50 (AlphaScreen, mean of runs) was > 100 µM (inactive) and the IC50 (FP, mean of runs) was > 95 µM (inactive). This compound also had a pIC50 under setting [1] below 4.00, a pIC50 under setting [2] below 4.02 and a pIC50 under setting [3] below 4.02.

Consider `CC(O)(c1cccnc1)c1nc(/C=C/c2ccccc2)cs1` (stereo not given), for which the IC50 is > 100 µM (inactive) (AlphaScreen, mean of runs) and > 95 µM (inactive) (FP, mean of runs). Moreover, the pIC50 is, setting by setting: under setting [1], below 4.00; under setting [2], below 4.02; under setting [3], below 4.02.

For `CC1(c2ccccc2)CC(C)(C)n2c(O)c(C3=NC(=S)NC3=O)c3cccc1c32` (stereo not given), the IC50 is > 100 µM (inactive) (AlphaScreen, mean of runs) and > 95 µM (inactive) (FP, mean of runs). In addition, the pIC50 was below 4.00 under setting [1], below 4.02 under setting [2] and below 4.02 under setting [3].

On to `CN(C(=O)COC(=O)c1cnc(Cl)c(Cl)c1)C1CCCCC1`, for which the IC50 was > 100 µM (inactive) (AlphaScreen, mean of runs) and > 95 µM (inactive) (FP, mean of runs). Further, the pIC50 reads like this: under setting [1], below 4.00; under setting [2], below 4.02; under setting [3], below 4.02.

As to `COc1ccc(C(C(=O)NC(C)(C)C)N(C(=O)CCC(=O)Nc2cc(C)on2)c2c(C)cccc2C)cc1` (stereo not given), the IC50 (AlphaScreen, mean of runs) was > 100 µM (inactive) and the IC50 (FP, mean of runs) was > 95 µM (inactive). Moreover, the pIC50 is below 4.00 under setting [1], below 4.02 under setting [2] and below 4.02 under setting [3].

With `COc1ccc(S(=O)(=O)N2CCCCC2)cc1NC(=O)c1c(F)cccc1Cl`, the IC50 runs as follows: (AlphaScreen, mean of runs) > 100 µM (inactive); (FP, mean of runs) > 95 µM (inactive). Besides, the pIC50 is below 4.00 under setting [1], below 4.02 under setting [2] and below 4.02 under setting [3].

As to `COc1cc(CN2C[C@@H](CO)O[C@@H](n3cnc4c(N5CCN(c6ccccc6)CC5)ncnc43)C2)cc(OC)c1OC`, the IC50 result (AlphaScreen, mean of runs) is “inactive”. Moreover, the pIC50 runs as follows: under setting [1], 4.02; under setting [2], below 4.02; under setting [3], below 4.02. In addition, the IC50 (FP, mean of runs) was > 95 µM (inactive).

As for `O=C(O)C1CCN(C(=O)c2ccc(Cl)cc2)CC1`, the IC50 (AlphaScreen, mean of runs) is > 100 µM (inactive) and the IC50 (FP, mean of runs) is > 95 µM (inactive). Moreover, the pIC50 was below 4.00 under setting [1], below 4.02 under setting [2] and below 4.02 under setting [3].

For `COc1ccc([C@H]2/C=C\CN(S(C)(=O)=O)[C@@H](C)C(=O)N2Cc2ccc(F)cc2)cc1`, the IC50 was > 100 µM (inactive) (AlphaScreen, mean of runs) and > 95 µM (inactive) (FP, mean of runs). In addition, the pIC50 is below 4.00 under setting [1], below 4.02 under setting [2] and below 4.02 under setting [3].

For the compound `Cc1cc2c(=O)[nH]cnc2s1`, the IC50 reads like this: (AlphaScreen, mean of runs) > 100 µM (inactive); (FP, mean of runs) > 95 µM (inactive). The pIC50 reads like this: under setting [1], below 4.00; under setting [2], below 4.02; under setting [3], below 4.02.

With `C[C@@H](NC(=O)c1[nH]cnc1C(=O)Nc1cccc(Cl)c1)c1ccccc1`, the IC50 entry (AlphaScreen, mean of runs) was “inactive”. Further, the negative-log IC50 (pIC50) was 4.66 under setting [1], below 4.02 under setting [2] and below 4.02 under setting [3]. In addition, the IC50 (FP, mean of runs) is > 95 µM (inactive).

For the compound `CCN(c1ccccc1)S(=O)(=O)c1ccc(C(=O)N(CCCN(C)C)c2nc3cc4c(cc3s2)OCO4)cc1`, the IC50 result (AlphaScreen, mean of runs) is “inactive”. Moreover, the pIC50 is 4.43 under setting [1], below 4.02 under setting [2] and below 4.02 under setting [3]. Further, the IC50 (FP, mean of runs) is > 95 µM (inactive).

In the case of `CC(C)OC(=O)CSc1nnc(-c2ccccn2)n1-c1ccccc1`, the IC50 is, setting by setting: (AlphaScreen, mean of runs) > 100 µM (inactive); (FP, mean of runs) > 95 µM (inactive). Moreover, the pIC50 reads like this: under setting [1], below 4.00; under setting [2], below 4.02; under setting [3], below 4.02.

`COc1ccc([C@H]2/C=C\CN(C(=O)C3CC3)[C@@H](C)C(=O)N2Cc2ccc(F)cc2)cc1`: the IC50 is, setting by setting: (AlphaScreen, mean of runs) > 100 µM (inactive); (FP, mean of runs) > 95 µM (inactive). Besides, the pIC50 under setting [1] is below 4.00, the pIC50 under setting [2] is below 4.02 and the pIC50 under setting [3] was below 4.02.

Turning to `Cc1ccc(C(=O)O)cc1NC(=O)Nc1cccc2ccccc12`, the IC50 runs as follows: (AlphaScreen, mean of runs) > 100 µM (inactive); (FP, mean of runs) > 95 µM (inactive). Also, the pIC50 reads like this: under setting [1], below 4.00; under setting [2], below 4.02; under setting [3], below 4.02.

For `N#Cc1ccc(COC(=O)c2cnc(Cl)c(Cl)c2)cc1`, the IC50 runs as follows: (AlphaScreen, mean of runs) > 100 µM (inactive); (FP, mean of runs) > 95 µM (inactive). Besides, the pIC50 reads like this: under setting [1], below 4.00; under setting [2], below 4.02; under setting [3], below 4.02.

As for `CC(C)(C)C(=O)c1cnc(Nc2ccccc2)s1`, the IC50 is, setting by setting: (AlphaScreen, mean of runs) > 100 µM (inactive); (FP, mean of runs) > 95 µM (inactive). Further, the pIC50 reads like this: under setting [1], below 4.00; under setting [2], below 4.02; under setting [3], below 4.02.

Consider `CN(C)CCn1c(=O)n(-c2ccc(F)cc2)c(=O)c2c3c(sc21)CCCCC3`, for which the IC50 entry (AlphaScreen, mean of runs) is “inactive”. Further, the pIC50 by setting is: under setting [1], 4.35; under setting [2], below 4.02; under setting [3], below 4.02. Also, the IC50 (FP, mean of runs) was > 95 µM (inactive).

For the compound `O=C(NCc1ccccc1)c1ccc(N2CCC3(CC2)CC(c2ccc(Cl)cc2)=NO3)c([N+](=O)[O-])c1`, for the setting “AlphaScreen, mean of runs”, the IC50 entry is “inactive”. Further, the pIC50 under setting [1] is 4.66, the pIC50 under setting [2] is below 4.02 and the pIC50 under setting [3] was below 4.02. The IC50 (FP, mean of runs) was > 95 µM (inactive).

As to `CC(C)(C)OC(=O)N1CCC(NC(=O)c2nc[nH]c2C(=O)N2CCc3ccccc3C2)CC1`, the IC50 runs as follows: (AlphaScreen, mean of runs) > 100 µM (inactive); (FP, mean of runs) > 95 µM (inactive). Also, the pIC50 under setting [1] is below 4.00, the pIC50 under setting [2] was below 4.02 and the pIC50 under setting [3] is below 4.02.

For `CCC1=C(OC(=O)N(CC)CC)N2C(=O)OC(=NCC(=O)OC)[C@]2(Cc2ccccc2)[C@H]2C1=CC[C@H]1C(=O)N(CC(=O)OC)C(=O)[C@H]12`, where the note is “AlphaScreen, mean of runs”, the IC50 result is “inactive”. The pIC50 reads like this: under setting [1], 4.19; under setting [2], below 4.02; under setting [3], below 4.02. Besides, the IC50 (FP, mean of runs) was > 95 µM (inactive).

For the compound `CCOC(=O)C1=C(O)C(=O)N(c2ccccc2)C1c1cccc([N+](=O)[O-])c1` (stereo not given), the IC50 is, setting by setting: (AlphaScreen, mean of runs) > 100 µM (inactive); (FP, mean of runs) > 95 µM (inactive). In addition, the negative logarithm of the IC50 (pIC50) runs as follows: under setting [1], below 4.00; under setting [2], below 4.02; under setting [3], below 4.02.

In the case of `O=C(CCc1ccc(Oc2cc([N+](=O)[O-])cc([N+](=O)[O-])c2)cc1)N1CCCCCC1`, the pIC50 reads like this: (AlphaScreen, mean of runs) 4.94; under setting [1], 4.94; under setting [2], below 4.02; under setting [3], below 4.02. The IC50 (FP, mean of runs) is > 95 µM (inactive).

Take `CCn1ncc(Br)c1C(=O)N(C)C12CC3CC(CC(C3)C1)C2`: the IC50 by setting is: (AlphaScreen, mean of runs) > 100 µM (inactive); (FP, mean of runs) > 95 µM (inactive). Further, the pIC50 runs as follows: under setting [1], below 4.00; under setting [2], below 4.02; under setting [3], below 4.02.

As to `Cn1c(=O)c2c(nc(OCc3cccnc3)n2Cc2ccccc2)n(C)c1=O`, the IC50 entry (AlphaScreen, mean of runs) is “inactive”. Moreover, the pIC50 was 4.39 under setting [1], below 4.02 under setting [2] and below 4.02 under setting [3]. Besides, where the note is “FP, mean of runs”, the IC50 was > 95 µM (inactive).

Regarding `Cc1ccccc1/C=C/c1nc2ccccc2c(=O)n1CCc1ccccc1`, the IC50 by setting is: (AlphaScreen, mean of runs) > 100 µM (inactive); (FP, mean of runs) > 95 µM (inactive). For the same compound, the pIC50 by setting is: under setting [1], below 4.00; under setting [2], below 4.02; under setting [3], below 4.02.

For `O=c1ccsn1Cc1ccccc1`, the IC50 by setting is: (AlphaScreen, mean of runs) > 100 µM (inactive); (FP, mean of runs) > 95 µM (inactive). In addition, the pIC50 is, setting by setting: under setting [1], below 4.00; under setting [2], below 4.02; under setting [3], below 4.02.

On to `CCCCCc1c(-c2cccc(Cl)c2)ncn1CCc1ccccc1OC`, for which the IC50 by setting is: (AlphaScreen, mean of runs) > 100 µM (inactive); (FP, mean of runs) > 95 µM (inactive). Further, the pIC50 is, setting by setting: under setting [1], below 4.00; under setting [2], below 4.02; under setting [3], below 4.02.

Turning to `COc1ccc(Cl)cc1S(=O)(=O)N1CCN(CC(=O)C(C)(C)C)CC1`, the IC50 (AlphaScreen, mean of runs) was > 100 µM (inactive) and the IC50 (FP, mean of runs) was > 95 µM (inactive). The pIC50 is, setting by setting: under setting [1], below 4.00; under setting [2], below 4.02; under setting [3], below 4.02.

With `CCOC(=O)[C@@H]1[C@H]2COc3ccccc3[C@@H]2N2C(=O)N(c3ccc(Cl)cc3)C(=O)[C@]12C`, the pIC50 is 5.12 (AlphaScreen, mean of runs); 5.12 under setting [1]; below 4.02 under setting [2]; below 4.02 under setting [3]. For the same compound, the IC50 (FP, mean of runs) was > 95 µM (inactive).

On to `Cc1cccc(C)c1Nc1nnc(SCC(=O)Nc2cc(S(=O)(=O)N3CCCCC3)ccc2Cl)s1`, for which the IC50 by setting is: (AlphaScreen, mean of runs) > 100 µM (inactive); (FP, mean of runs) > 95 µM (inactive). This compound also had a pIC50 under setting [1] below 4.00, a pIC50 under setting [2] below 4.02 and a pIC50 under setting [3] below 4.02.

In the case of `CCOC(=O)C1(O)CC(C)=NN1C(=O)c1cccc(Br)c1` (stereo not given), the IC50 reads like this: (AlphaScreen, mean of runs) > 100 µM (inactive); (FP, mean of runs) > 95 µM (inactive). This compound gave a pIC50 under setting [1] below 4.00, a pIC50 under setting [2] below 4.02 and a pIC50 under setting [3] below 4.02.
